Results on 18 compounds are retold here after PMC8162404, “Proteomimetic surface fragments distinguish targets by function” (Chemical Science, 2020).

Molecules are shown by their SMILES. Like-named read-outs stand apart in the source and are kept apart here.

Holding throughout (assay): Pull-down assay with immobilized protein and LSM libraries
Test [1] addresses T1, CaM (Bos taurus, UniProt P62157).
T1 construct: made in house; host or cells: E. coli BL21 (DE3)
In kind it is binding, bovine. The conditions noted are these: 1:2 stoichiometry assumed, read-out: Surface mapping KD (apparent). The protocol: Pull-down assays with immobilized test proteins and foldameric LSM libraries were carried out. Proteins were equilibrated with LSM probes, and equilibrium bound fractions (FB) were determined from the unbound fractions measured by HPLC-MS methods. Hits were corrected with background binding of the resin. The protocol allowed all binding events to equilibrate irrespective of affinity, specificity, and binding kinetics. This was essential to judge overall druggability and promiscuity. Importantly, the concentration of protein and the total concentration of foldameric LSMs were equimolar, which minimized competition between the probes. This experimental setup approximated independent binding of individual library members. Results were visualized as heat maps of dissociation constants (Fig. 3).
Pull-down assay and data analysis
Pull-down assay. LSM sublibraries were screened separately as previously described.(2) Experiments were performed in the following buffers: (i) 20 mM pH 7.4 HEPES, 150 mM NaCl, 5 mM CaCl2 for CaM; (ii) 50 mM pH 7.4 HEPES, 150 mM NaCl, 1 mM TCEP, 1 mM CaCl2 for S100 proteins; (iii) 20 mM pH 7.4 HEPES, 150 mM NaCl, 1 mM TCEP for Gal-1 and (iv) 20 mM pH 7.4 HEPES, 150 mM NaCl for RecQ-WH. Assays were performed in paper filter spin cups (Thermo Scientific) with sample volumes of 100 µl. Hexahistidine-tagged proteins were immobilized on previously washed Co-NTA resin (TALON, Takara Bio USA, Inc., […]
LSM sublibrary was added, in which each of the 64 library members were used at a concentration of 1 µM. Samples were incubated at room temperature for 30 min with shaking at 100 rpm. Then, samples were centrifuged at 1000 rpm for 2 min and washed with 100 µl pull-down buffer to remove unbound compounds.
The control experiments were performed using the same compounds and the resin but without the immobilized protein. In case of competitive assays, competitor peptides were added to LSM sublibrary samples in 200 µM final concentration. In the case of Gal-1, lactose (competitor) was used in a concentration of 10 mM. Experiments were performed at least twice. Mean […]
LC-MS methods and parameters. HPLC/ESI-MS analysis was used to characterize the samples from the pull-down assay. LC-MS analysis was performed with a Thermo Scientific Dionex UltiMate 3000 HPLC system interfaced to an LTQ ion trap mass spectrometer (Thermo Electron Corp., San Jose, CA, USA). Samples were injected onto an Aeris Widepore XB-C18 (250 x 4.6 mm) analytical HPLC column using gradient elution 5-80 % solution B during 25 minutes. For pull-down samples, eluent composition was 0.1% acetic acid in distilled water (Solution A) and 0.1% acetic acid in acetonitrile (solution B). Mass spectra were acquired in full scan mode from 200 to 2000 m/z range. For overlapping peaks, selective reaction monitoring (SRM) was […]
MS data analysis. Thermo Xcalibur 2.2 software was used for peak identification and integration. The majority of the foldameric fragments could be resolved independently via HPLC-MS/MS measurements based on molecular weight, MS fragmentation pattern and retention time. Peaks of some foldamers with β3-hIle or β3-hLeu in position R2 could not be resolved, these were integrated and averaged. In the processing method, each sample component was associated to a chromatographic peak based on previously identified mass (m/z) and retention time (ref (2) and Table S7-10). Using ICIS peak detection algorithm, the general detection and integration criteria were: smoothing points: 5, baseline window: 80, area noise factor: 5, peak noise factor: 10. Using these processing setups, all raw data files were reprocessed together and analyzed. Errors in peak identification during the automatic processing were corrected manually.
Calculation of the discussed parameters
1. Bound fractions (FB.) were calculated from the HPLC-MS intensity loss of the LSM probes compared to the control where no protein was immobilized to the resin: […]

The target of test [2] is T2, Gal-1 (Homo sapiens, UniProt P09382).
T2 construct: made in house; host or cells: E. coli BL21(DE3)
The format is binding. As to conditions: H12 library; 1:1 binding assumed; read-out: Surface mapping KD (apparent). An outline of the steps: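 His-tagged protein immobilized on Co-NTA resin (64 µM) in 20 mM HEPES pH 7.4, 150 mM NaCl, equilibrated 30 min at room temperature with foldamer LSM sublibraries at equimolar total concentration. Unbound fractions quantified by HPLC-MS versus protein-free resin control; apparent KD assumes 1:1 binding.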

Test [3] addresses T3, S100B (Homo sapiens, UniProt P04271).
T3 construct: made in house; host or cells: Escherichia coli BL21(DE3)
T3 sequence (P04271 1-92): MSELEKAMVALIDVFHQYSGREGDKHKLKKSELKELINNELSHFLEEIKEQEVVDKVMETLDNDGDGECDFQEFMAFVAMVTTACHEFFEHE
The format is binding. As to conditions: 1:1 binding assumed, read-out: Surface mapping KD (apparent). In a few lines: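 Buffers were HEPES pH 7.4 with 150 mM NaCl, plus 1 mM TCEP and 1 mM CaCl2 (50 mM HEPES) for S100A4 and S100B, 1 mM TCEP for Gal-1, and no additive for RecQ-WH. Immobilized protein at 64 µM was equilibrated 30 min with the LSM sublibrary, and unbound probes were measured by LC-MS.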

T2 sequence (P09382 whole entry): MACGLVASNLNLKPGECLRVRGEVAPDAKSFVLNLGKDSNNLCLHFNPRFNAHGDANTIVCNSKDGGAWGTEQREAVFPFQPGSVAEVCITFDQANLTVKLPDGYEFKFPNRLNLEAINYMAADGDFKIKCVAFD

Turning to `C[C@@H](CC(=O)N[C@H]1CCC[C@@H]1C(=O)N[C@H]1CCC[C@@H]1C(=O)N[C@H](CC(=O)N[C@H]1CCC[C@@H]1C(=O)N[C@H]1CCC[C@@H]1C(N)=O)Cc1c[nH]c2ccccc12)NC(=O)[C@H]1CCC[C@@H]1NC(=O)[C@H]1CCC[C@@H]1N` [H12 AW], the Kd in test [1] (H12 library) came out at 234 µM; in test [2] it was 355 µM; in test [3] (H12 library) it was 62 µM.
For `C[C@@H](CC(=O)N[C@H]1CCC[C@@H]1C(=O)N[C@H]1CCC[C@@H]1C(N)=O)NC(=O)[C@H]1CCC[C@@H]1NC(=O)[C@H]1CCC[C@@H]1NC(=O)C[C@H](Cc1ccccc1)NC(=O)[C@H]1CCC[C@@H]1NC(=O)[C@H]1CCC[C@@H]1N` [H12 FA], in that order: 496 µM, 341 µM and 116 µM.
Taken in the same sequence, the figures for `CSCC[C@@H](CC(=O)N[C@H]1CCC[C@@H]1C(=O)N[C@H]1CCC[C@@H]1C(N)=O)NC(=O)[C@H]1CCC[C@@H]1NC(=O)[C@H]1CCC[C@@H]1NC(=O)C[C@H](Cc1ccc(O)cc1)NC(=O)[C@H]1CCC[C@@H]1NC(=O)[C@H]1CCC[C@@H]1N` [H12 YM] were 178 µM, 286 µM and 102 µM.
As for `CC[C@H](C)[C@@H](CC(=O)N[C@H]1CCC[C@@H]1C(=O)N[C@H]1CCC[C@@H]1C(=O)N[C@@H](CCCNC(=N)N)CC(=O)N[C@H]1CCC[C@@H]1C(=O)N[C@H]1CCC[C@@H]1C(N)=O)NC(=O)[C@H]1CCC[C@@H]1NC(=O)[C@H]1CCC[C@@H]1N` [H12 IR], the Kd in test [1] (H12 library) turned out to be 236 µM; in test [2] it was 120 µM; in test [3] (H12 library) it was 39 µM.
For `CSCC[C@@H](CC(=O)N[C@H]1CCC[C@@H]1C(=O)N[C@H]1CCC[C@@H]1C(=O)N[C@H](CC(=O)N[C@H]1CCC[C@@H]1C(=O)N[C@H]1CCC[C@@H]1C(N)=O)C(C)C)NC(=O)[C@H]1CCC[C@@H]1NC(=O)[C@H]1CCC[C@@H]1N` [H12 MV], in that order: 342 µM, 247 µM and 127 µM.
For `CSCC[C@@H](CC(=O)N[C@H]1CCC[C@@H]1C(=O)N[C@H]1CCC[C@@H]1C(=O)N[C@H](CC(=O)N[C@H]1CCC[C@@H]1C(=O)N[C@H]1CCC[C@@H]1C(N)=O)Cc1ccc(O)cc1)NC(=O)[C@H]1CCC[C@@H]1NC(=O)[C@H]1CCC[C@@H]1N` [H12 MY], in that order: 178 µM, 286 µM and 102 µM.
Turning to `NC(=O)CC[C@@H](CC(=O)N[C@H]1CCC[C@@H]1C(=O)N[C@H]1CCC[C@@H]1C(=O)N[C@H](CC(=O)N[C@H]1CCC[C@@H]1C(=O)N[C@H]1CCC[C@@H]1C(N)=O)Cc1ccccc1)NC(=O)[C@H]1CCC[C@@H]1NC(=O)[C@H]1CCC[C@@H]1N` [H12 QF], the Kd in test [1] (H12 library) was 181 µM; in test [3] (H12 library) it was 461 µM.
Take `C[C@@H](CC(=O)N[C@H]1CCC[C@@H]1C(=O)N[C@H]1CCC[C@@H]1C(N)=O)NC(=O)[C@H]1CCC[C@@H]1NC(=O)[C@H]1CCC[C@@H]1NC(=O)C[C@H](Cc1c[nH]c2ccccc12)NC(=O)[C@H]1CCC[C@@H]1NC(=O)[C@H]1CCC[C@@H]1N` [H12 WA]: the Kd in test [1] (H12 library) is 303 µM; in test [2] it was 385 µM; in test [3] (H12 library), 60 µM.
With `NC(=O)C[C@@H](CC(=O)N[C@H]1CCC[C@@H]1C(=O)N[C@H]1CCC[C@@H]1C(=O)N[C@H](CC(=O)N[C@H]1CCC[C@@H]1C(=O)N[C@H]1CCC[C@@H]1C(N)=O)Cc1ccccc1)NC(=O)[C@H]1CCC[C@@H]1NC(=O)[C@H]1CCC[C@@H]1N` [H12 NF], the Kd in test [1] (H12 library) was 162 µM; in test [3] (H12 library) it was 368 µM.
For `NC(=O)CC[C@@H](CC(=O)N[C@H]1CCC[C@@H]1C(=O)N[C@H]1CCC[C@@H]1C(=O)N[C@H](CC(=O)N[C@H]1CCC[C@@H]1C(=O)N[C@H]1CCC[C@@H]1C(N)=O)Cc1c[nH]c2ccccc12)NC(=O)[C@H]1CCC[C@@H]1NC(=O)[C@H]1CCC[C@@H]1N` [H12 QW], the Kd in test [1] (H12 library) is 55 µM; in test [2], 412 µM; in test [3] (H12 library), 170 µM.
For `NC(=O)[C@H]1CCC[C@@H]1NC(=O)[C@H]1CCC[C@@H]1NC(=O)C[C@H](Cc1c[nH]c2ccccc12)NC(=O)[C@H]1CCC[C@@H]1NC(=O)[C@H]1CCC[C@@H]1NC(=O)C[C@H](CO)NC(=O)[C@H]1CCC[C@@H]1NC(=O)[C@H]1CCC[C@@H]1N` [H12 SW], in that order: 41 µM, 459 µM and 114 µM.
On to `NC(=O)C[C@@H](CC(=O)N[C@H]1CCC[C@@H]1C(=O)N[C@H]1CCC[C@@H]1C(=O)N[C@H](CC(=O)N[C@H]1CCC[C@@H]1C(=O)N[C@H]1CCC[C@@H]1C(N)=O)Cc1c[nH]c2ccccc12)NC(=O)[C@H]1CCC[C@@H]1NC(=O)[C@H]1CCC[C@@H]1N` [H12 NW], for which the Kd in test [1] (H12 library) amounted to 63 µM; in test [3] (H12 library), 155 µM.
With `CC(C)C[C@@H](CC(=O)N[C@H]1CCC[C@@H]1C(=O)N[C@H]1CCC[C@@H]1C(=O)N[C@H](CC(=O)N[C@H]1CCC[C@@H]1C(=O)N[C@H]1CCC[C@@H]1C(N)=O)C(C)C)NC(=O)[C@H]1CCC[C@@H]1NC(=O)[C@H]1CCC[C@@H]1N` [H12 LV], the Kd in test [1] (H12 library) was found to be 270 µM; in test [2] it was 468 µM; in test [3] (H12 library), 116 µM.
In the case of `CC[C@H](C)[C@@H](CC(=O)N[C@H]1CCC[C@@H]1C(=O)N[C@H]1CCC[C@@H]1C(N)=O)NC(=O)[C@H]1CCC[C@@H]1NC(=O)[C@H]1CCC[C@@H]1NC(=O)C[C@H](CO)NC(=O)[C@H]1CCC[C@@H]1NC(=O)[C@H]1CCC[C@@H]1N` [H12 SI], the Kd was found to be 252 µM in test [1] (H12 library) and 419 µM in test [3] (H12 library).
As to `C[C@@H](O)[C@@H](CC(=O)N[C@H]1CCCC[C@@H]1C(N)=O)NC(=O)[C@H]1CCCC[C@@H]1NC(=O)[C@H]1CCCC[C@@H]1NC(=O)C[C@H](CCCNC(=N)N)NC(=O)[C@H]1CCCC[C@@H]1N` [H14 RT], the Kd stood at 124 µM in test [1] (H14 library) and 324 µM in test [3] (H14 library).
With `C[C@@H](O)[C@@H](CC(=O)N[C@H]1CCC[C@@H]1C(=O)N[C@H]1CCC[C@@H]1C(=O)N[C@H](CC(=O)N[C@H]1CCC[C@@H]1C(=O)N[C@H]1CCC[C@@H]1C(N)=O)Cc1c[nH]c2ccccc12)NC(=O)[C@H]1CCC[C@@H]1NC(=O)[C@H]1CCC[C@@H]1N` [H12 TW], the Kd amounted to 25 µM in test [1] (H12 library) and 113 µM in test [3] (H12 library).
For `C[C@@H](CC(=O)N[C@H]1CCCC[C@@H]1C(=O)N[C@H]1CCCC[C@@H]1C(=O)N[C@@H](CCCCN)CC(=O)N[C@H]1CCCC[C@@H]1C(N)=O)NC(=O)[C@H]1CCCC[C@@H]1N` [H14 AK], the results for the Kd in test [1] (H14 library) and in test [3] (H14 library) were 181 µM and 180 µM, respectively.
With `NC(=O)[C@H]1CCC[C@@H]1NC(=O)[C@H]1CCC[C@@H]1NC(=O)C[C@H](Cc1ccccc1)NC(=O)[C@H]1CCC[C@@H]1NC(=O)[C@H]1CCC[C@@H]1NC(=O)C[C@H](CO)NC(=O)[C@H]1CCC[C@@H]1NC(=O)[C@H]1CCC[C@@H]1N` [H12 SF], the Kd in test [1] (H12 library) was determined as 153 µM; in test [3] (H12 library) it was 189 µM.
